Minimal effective concentration data for one compound are collected here from article PMC7377239, “Cardiovascular Effects of Polychlorinated Biphenyls and Their Major Metabolites” (Environmental Health Perspectives, 2020).

Counter-ions that a name gives are not always drawn. Like-named read-outs stand apart in the source and are kept apart here.

Assay [1] concerns HUVECs. Put plainly: Tube formation (tubulogenesis) assay in HUVECs, 18 h. The assay is classed as cell-based, human. As to conditions: Homo sapiens, HUVEC, 18 h, HUVEC. On the procedure: Similar to the cultivation of iCell®-endothelial cells, HUVEC maintenance and experimentation are detailed elsewhere ([Iwata et al. 2017]). Briefly, HUVECs were thawed, seeded, and grown in T75 tissue culture flasks in Medium 199 with EGM™-2 BulletKits™. HUVECs were incubated at regular cell culture conditions, 37°C and 5% CO2 , and passaged every 2–3 d using TrypLE™ Express. To ensure adequate endothelial function, experiments were performed with cells between passages 1 and 5.
Tube formation assays were performed on Geltrex™ LDEV-free reduced growth factor basement membrane using both iCell®-endothelial cells and HUVECs in 384-well format exactly as detailed in Iwata et al. ([2017]). Negative controls included media-only and vehicle control (i.e., 0.5% vol/vol DMSO in cell culture media) wells. Positive assay controls were consistent with previously published reports ([Iwata et al. 2017]) and included TAB ( 50μM ) as a cytotoxic control, and nocodazole ( 0.01–1μM ), suramin ( 0.5–50μM ), histamine ( 0.1–100μM ), and chloroquine ( 1–500μM ) as chemicals associated with specific effects on ECs. Each test chemical was screened in triplicate for each concentration. Briefly, for iCell®-endothelial cells, starvation media consisted of VascuLife® basal medium with 4 mM L-glutamine LifeFactor and 0.1% iCell®-endothelial cells medium supplement. To counter dilution effects, a 2× concentration of the HUVEC maintenance medium supplemented with additional VEGF was created (EGM™-2 BulletKits™ at 2× concentration; also the VEGF component was replaced with 12.5 ng/mL VEGF). Geltrex™ LDEV-free reduced growth factor basement membrane was thawed overnight and dispensed into 384-well plates ( 10μL/well ) with tapping and rotating to evenly coat. The plates were incubated for 1 h in a cell culture incubator at 37°C and 5% CO2 . A 2× PCB plate (containing all of the PCBs and metabolites in dose–response) was prepared in basal media and added, 25μL per well, to the Geltrex™ coated plates. On separate plates, cells were seeded 7,500 (iPSC- ECs) or 3,500 (HUVEC) cells/well. Cells were exposed to chemicals overnight at 37°C and 5% CO2 and stained with 3× concentration of calcein AM ( 25μL /well, 6μmol/L ) for 15 min before imaging. Images were captured at 4× magnification with the FITC filter (calcein AM). Images were analyzed with the angiogenesis module software within MetaXpress™ (Molecular Devices).
(§1) Phenotypic responses were quantitatively assessed using concentration–response modeling as detailed elsewhere ([Sirenko et al. 2017]). Briefly, phenotypic readouts were normalized to vehicle controls and fit to a four-parameter logistic model in R studio software (version 3.1.1; R Development Core Team). Following EPA guidance on dose–response modeling, a cutoff of one standard deviation across means of vehicle control (i.e., 0.5% vol/vol DMSO in cell culture media) wells was applied to determine the point-of-departure (POD) values ([U.S. EPA 2012]). In the absence of a concentration–response, the highest tested concentration (i.e., 100μM ) was assigned as “no observable adverse effect level.” The concentration–response assessment R script, as well as templates for vehicle and concentration–response data, are available as a supplement to Sirenko et al. ([2017]). The ability of physicochemical properties to predict differences in PODs were evaluated by multiregression and mixed-effects modeling using R.

For assay [2], the system named is iCell endothelial cells (human iPSC-derived ECs). Put plainly: High-content imaging cytotoxicity in iCell endothelial cells, 24 h. The assay is classed as cell-based. The conditions noted are these: Homo sapiens, Endothelial cell, endothelial cells (endo), 24 hr. As to the method: The culture conditions of iCell®-endothelial cells were as reported elsewhere ([Iwata et al. 2017]). Briefly, T75 flasks were coated with a fibronectin solution ( 3 μg/cm^2 ) followed by incubation for 1–2 h. Cells were thawed for 3 min in a 37°C water bath. Thawed cells were added to maintenance medium made of VascuLife VEGF Medium Complete Kit, excluding the supplied FBS, and iCell® Endothelial Cells Medium Supplement. The final formulation of the maintenance medium is detailed in ([Iwata et al. 2017]). The aliquoted fibronectin solution was aspirated from the T75 flasks, and cells were seeded at 1.0×10^4 cells/cm^2 . Cells were maintained at 37°C and 5% CO2 with media changes occurring every 2 d and passaged every 3–4 d using TrypLE™ Express. All experiments were conducted on cells between passages 1 and 5.
Cytotoxicity was assessed in parallel experiments. For iCell®-endothelial cells, 384-well plates were coated with a 30μg/mL fibronectin solution ( 10μL/well ) and incubated for 2 h at RT. iCell®-endothelial cells were dissociated with TrypLE™ Express and prepared into a solution to achieve 750 cells per well and 50μL of total volume. The fibronectin solution was removed from the 384-well plate, and cells were plated. For HUVECs, similar dissociation and the same cell density were used for plating with the exclusion of the fibronectin solution. Cells were incubated at 37°C and 5% CO2 until a monolayer was formed, typically 3–5 d. 2×PCB plates were created with the requisite maintenance medium. Before treatment, the medium in the wells was exchanged to 25μL/well of fresh maintenance medium. 2×PCB chemical solutions ( […] ) were added. After 24 h incubation at 37°C and 5% CO2 , cells were stained with Hoechst 33342, MitoTracker™ Orange, and calcein AM for 20 min before replacing the staining media with FluoroBright DMEM. Cell culture plates were imaged using the ImageXpress® Micro Confocal high-content imaging system (Molecular Devices). Images were acquired at 10× magnification with DAPI, TRITC, or FITC filter (Hoechst 33342, MitoTracker™, or calcein AM, respectively). The multiwavelength cell scoring applications module in MetaXpress™ (Molecular Devices) was used to analyze the images.
as §1

In the case of `O=S(=O)(O)Oc1ccc(-c2cccc(Cl)c2)cc1Cl` [4-PCB 11 sulfate], the minimal effective concentration in assay [1] (tube formation mtl, read-out: POD huvec.mtl.18hr) is 14.3 µM; in assay [1] (tube formation tlps, read-out: POD huvec.tlps.18hr), 27.2 µM; in assay [1] (tube formation tta, read-out: POD huvec.tta.18hr), 100 µM; in assay [1] (tube formation ttl, read-out: POD huvec.ttl.18hr), 100 µM; in assay [2] (cyto, read-out: POD endo.cyto.24hr), 100 µM; in assay [2] (mito, read-out: POD endo.mito.24hr) it was 100 µM. Also, the minimal effective concentration in assay [2] (mitoint, read-out: POD endo.mitoint.24hr) was determined as 100 µM; in assay [2] (nma, read-out: POD endo.nma.24hr), 100 µM; in assay [2] (tc, read-out: POD endo.tc.24hr), 100 µM.
